The text below walks through data of publication PMC10058827, “A New Way to 2,3,4-Trisubstituted Benzo[h]quinolines: Synthesis, Consecutive Reactions and Cellular Activities” (Molecules, 2023).

Where two headings read alike, the source gives them in different places.

Common to all, as to type: cell-based
For assay [1], the system named is Staphylococcus aureus MRSA (DSM 11822). Nature of the assay: Antibacterial growth inhibition screen, residual growth in % (OD600). Particulars: for activity at 5 µM: Staphylococcus aureus, strain DSM 11822, compound concentration 5 µM, 18 h at 37 °C; for activity against MRSA (in words): growth inhibition assay. The protocol:
(§1) Overnight cultures of the bacteria were grown aerobically at 37 °C in Müller–Hinton broth with added 1% glucose and a pH of 7.2 for Gram-negative strains, or with a Trypticase soy yeast extract medium (TSY—30 g/L Trypticase soy broth, 3 g/L yeast extract, pH 7.2) for Gram-positive strains. […] A total of 25 μL of test culture was added to 25 μL of a serial dilution of the test compounds in the appropriate medium for the different strains in accordance with standardized procedures in 384-well plates. For screening purposes, the residual absorbance in % was tested at the compound concentrations of 5 and 50 µM. For the selected compounds, the concentration-dependent growth inhibition curves were recorded from the stock solutions in DMSO at the final concentrations of 100, 50, 25, 12.5, 6,25, 3.125, 1.56, 0.78, 0.39, and 0.2 µM. As the positive control compounds, Linezolid (both MRSA strains) Ciprofloxacin (E. faecium, E. coli), and Amikacin (P. aeruginosa) were applied. The highest DMSO concentration in the assay was 1%, which had no apparent effect on the growth of the bacteria. After an incubation time of 18 h at 37 °C under moist conditions, the optical density at 600 nm was measured with a Fusion Universal Microplate Analyzer (Perkin–Elmer, Waltham, MA, USA). […] The following bacterial strains were used: Gram-negative: Escherichia coli (DSM 1116) and Pseudomonas aeruginosa PA7 (DSM 24068), and Gram-positive: Staphylococcus aureus MRSA (clinical isolate, RKI 11-02670) and Staphylococcus aureus MRSA (DSM 11822). The MIC values were determined by curve fitting with Sigma Plot.

Assay [2] deals with human breast cancer cell line MCF-7. Description: Antiproliferative WST-1 assay. The following applies: WST-1, 5 days. The protocol:
(§2) In addition to probing effects on bacterial pathogens, the compounds’ ability to interfere with the proliferation and/or viability of four mammalian cell lines was assessed by quantifying their mitochondrial dehydrogenase activity in a colorimetric assay with the tetrazolium dye WST-1.
(§3) The effects of the compounds on cell viability were probed with a WST-1 test using the procedure of Ishiyama et al. as modified by Sasse et al.. […] Briefly, the subconfluent cells were washed with Earle’s Balanced Salt Solution (Gibco) without Ca and Mg ions, trypsinized, and re-suspended in Dulbecco’s modified eagle’s medium that contained 5% fetal bovine serum (FBS; L929, KB-3-1, FS4-LTM) or Roswell Park Memorial Institute medium that contained 5% FBS, 0.5% Minimum Essential Medium Non-Essential Amino Acids, Gibco (MEM NEAA), 0.5% GlutaMAX (Gibco), and insulin at 5 μg/mL (MCF-7). […] The blank and solvent controls were incubated under identical conditions. After an incubation period of 5 days (for L929, KB-3-1, and MCF-7) or 24 h (for FS4-LTM), 3 μL of WST-1 (ready-to-use solution by Roche) was added. The incubation time of the plates at 37 °C varied between the cell lines from 20 min for KB-3-1, 30 min for L929, 1 h for FS4-LTM, to 2 h for MCF-7, before measuring absorbance at 450 nm (reference 600 nm) with an Infinite 200 PRO plate reader (Tecan, Männedorf, Switzerland). As the positive control compounds, Auranofin and Staurosporin were applied. The absorbance of the solvent control was set to 100%. The EC50 values were determined with Sigma Plot.

For assay [3], the system named is Staphylococcus aureus MRSA (clinical isolate, RKI 11-02670). Description: Antibacterial MIC determination, concentration-dependent growth inhibition. The protocol: as §1
Assay [4] relates to human cervical carcinoma cell line KB-3-1. Nature of the assay: Antiproliferative WST-1 assay. Particulars: WST-1, 5 days. The protocol: as §3, with “In addition to probing effects on bacterial pathogens, the compounds’ ability to interfere with the proliferation and/or viability of four mammalian cell lines was assessed by quantifying their mitochondrial dehydrogenase activity in a colorimetric assay with the tetrazolium dye WST-1. […] The effects” for “The effects”

For assay [5], the system named is mouse fibroblast cell line L929. Description: Antiproliferative WST-1 assay. The following applies: WST-1, 5 days. The protocol: as §3, with “In addition to probing effects on bacterial pathogens, the compounds’ ability to interfere with the proliferation and/or viability of four mammalian cell lines was assessed by quantifying their mitochondrial dehydrogenase activity in a colorimetric assay with the tetrazolium dye WST-1. […] The effects” for “The effects”

Assay [6] has as its system conditional immortalized human fibroblast cell line FS4-LTM. Nature of the assay: Antiproliferative WST-1 assay. Particulars: WST-1, 24 h. The protocol:
as §3, with “In addition to probing effects on bacterial pathogens, the compounds’ ability to interfere with the proliferation and/or viability of four mammalian cell lines was assessed by quantifying their mitochondrial dehydrogenase activity in a colorimetric assay with the tetrazolium dye WST-1. […] The effects” for “The effects”

The test system of assay [7] is four mammalian cell lines (L929, KB-3-1, MCF-7, FS4-LTM). Description: Antiproliferative WST-1 assay, range over all four cell lines. Particulars: 5 days (L929, KB-3-1, MCF-7) or 24 h (FS4-LTM). The protocol: as §2
The effects of the compounds on cell viability were probed with a WST-1 test using the procedure of Ishiyama et al. as modified by Sasse et al.. […] Briefly, the subconfluent cells were washed with Earle’s Balanced Salt Solution (Gibco) without Ca and Mg ions, trypsinized, and re-suspended in Dulbecco’s modified eagle’s medium that contained 5% fetal bovine serum (FBS; L929, KB-3-1, FS4-LTM) or Roswell Park Memorial Institute medium that contained 5% FBS, 0.5% Minimum Essential Medium Non-Essential Amino Acids, Gibco (MEM NEAA), 0.5% GlutaMAX (Gibco), and insulin at 5 μg/mL (MCF-7). […] After an incubation period of 5 days (for L929, KB-3-1, and MCF-7) or 24 h (for FS4-LTM), 3 μL of WST-1 (ready-to-use solution by Roche) was added. The incubation time of the plates at 37 °C varied between the cell lines from 20 min for KB-3-1, 30 min for L929, 1 h for FS4-LTM, to 2 h for MCF-7, before measuring absorbance at 450 nm (reference 600 nm) with an Infinite 200 PRO plate reader (Tecan, Männedorf, Switzerland). […] The absorbance of the solvent control was set to 100%. The EC50 values were determined with Sigma Plot.

[8] abbreviates: strain RKI 11-02670, 18 h at 37 °C, read-out: MRSA MIC.
[9] abbreviates: strain RKI 11-02670, converted from µM, read-out: MRSA MIC (µg/mL values in brackets).

Regarding `O=[N+]([O-])/C(C(Cl)=C(Cl)Cl)=C(\Nc1cccc2ccccc12)n1nnc2ccccc21` [Compound 17a, (E)-N-(1-(1H-Benzo[d][1,2,3]triazol-1-yl)-3,4,4-trichloro-2-nitrobuta-1,3-dien-1-yl)naphthalen-1-amine], the activity at 5 µM in assay [1] is 120%.

Regarding `CN[C@@H]1C[C@H]2O[C@@](C)([C@@H]1OC)n1c3ccccc3c3c4c(c5c6ccccc6n2c5c31)C(=O)NC4` [Staurosporine, reference compound], the EC50 in assay [2] (Homo sapiens, MCF7, 120 h) was less than 0.14 µM.

Regarding `CCOC(=O)CSc1nc2c(ccc3cc4ccccc4cc32)c(C(Cl)Cl)c1[N+](=O)[O-]` [Compound 6, Ethyl 2-((4-(dichloromethyl)-3-nitronaphtho[2,3-h]quinolin-2-yl)thio)acetate], in assay [1], the activity at 5 µM came to 112% and the “activity against MRSA (in words)” value is “inactive”.

Turning to `O=[N+]([O-])/C(C(Cl)=C(Cl)Cl)=C(\Nc1cccc2ccccc12)n1cccn1` [Compound 17c, (E)-N-(3,4,4-Trichloro-2-nitro-1-(1H-pyrazol-1-yl)buta-1,3-dien-1-yl)naphthalen-1-amine], the activity at 5 µM in assay [1] turned out to be 101%.

Regarding `O=[N+]([O-])C(C(Cl)=C(Cl)Cl)=C(n1cccn1)n1cccn1` [Compound 16c, 1,1’-(3,4,4-Trichloro-2-nitrobuta-1,3-diene-1,1-diyl)bis(1H-pyrazole)], in assay [1], the activity at 5 µM came out at 126% and the “activity against MRSA (in words)” value was “no activity”.

Regarding `O=[N+]([O-])c1c(-n2nnc3ccccc32)nc2c(ccc3ccccc32)c1C(Cl)Cl` [Compound 18a, 2-(1H-Benzo[d][1,2,3]triazol-1-yl)-4-(dichloromethyl)-3-nitrobenzo[h]quinoline], in assay [1], the activity at 5 µM turned out to be 95.1%.

On to `O=[N+]([O-])c1c([S+]([O-])c2ccc(F)cc2)nc2c(ccc3ccccc32)c1C(Cl)Cl` (centres unmarked) [Compound 12, 4-(Dichloromethyl)-2-((4-fluorophenyl)sulfinyl)-3-nitrobenzo[h]quinoline], for which the figures for the MIC in assay [3] (setting [8]) and in assay [3] (setting [9]) were 1.2 µM and 0.5 µg/mL, respectively. In addition, the 50% effective concentration (EC50) was 3.1 µM in assay [4] (Homo sapiens, KB 3-1, 120 h); 3.3 µM in assay [5] (Mus musculus, L929, 120 h); 4.4 µM in assay [6] (Homo sapiens, FS4-LTM); more than 50 µM in assay [2] (Homo sapiens, MCF7, 120 h). Moreover, the activity at 5 µM in assay [1] was determined as 2%.

With `CC(=O)OC[C@H]1O[C@@H]([S-])[C@H](OC(C)=O)[C@@H](OC(C)=O)[C@@H]1OC(C)=O.CCP(CC)CC.[Au+]` [Auranofin, reference compound], the half-maximal effective concentration (EC50) amounted to 0.6 µM in assay [4], 0.4 µM in assay [5], 1.3 µM in assay [6] and 3.5 µM in assay [2].

Take `O=[N+]([O-])c1c(-n2cncn2)nc2c(ccc3ccccc32)c1C(Cl)Cl` [Compound 18b, 4-(Dichloromethyl)-3-nitro-2-(1H-1,2,4-triazol-1-yl)benzo[h]quinoline]: the activity at 5 µM in assay [1] amounted to 107%.

As to `O=C(O)CSc1nc2c(ccc3ccccc32)c(C(Cl)Cl)c1[N+](=O)[O-]` [Compound 13, 2-((4-(Dichloromethyl)-3-nitrobenzo[h]quinolin-2-yl)thio)acetic acid], the results for the MIC in assay [3] (setting [8]) and in assay [3] (setting [9]) were 8.4 µM and 3.3 µg/mL, respectively. Also, the EC50 is 6.9 µM in assay [4] (Homo sapiens, KB 3-1, 120 h); 45 µM in assay [5] (Mus musculus, L929, 120 h); 15.7 µM in assay [6] (Homo sapiens, FS4-LTM); 17 µM in assay [2] (Homo sapiens, MCF7, 120 h); 6.9 to 45 µM in assay [7]. The activity at 5 µM in assay [1] was 1%. Also, in assay [1], the “activity against MRSA (in words)” value is given as “high activity”.

Turning to `O=[N+]([O-])c1c(N2CCOCC2)nc2c(ccc3ccccc32)c1C(Cl)Cl` [Compound 11b, 4-(4-(Dichloromethyl)-3-nitrobenzo[h]quinolin-2-yl)morpholine], the EC50 in assay [4] (Homo sapiens, KB 3-1, 120 h) is 10 µM; in assay [5] (Mus musculus, L929, 120 h), 27 µM; in assay [6] (Homo sapiens, FS4-LTM), more than 50 µM; in assay [2] (Homo sapiens, MCF7, 120 h) it was 50 µM. In addition, the activity at 5 µM in assay [1] amounted to 123%. The “activity against MRSA (in words)” value in assay [1] was “inactive”.

Turning to `CC(=O)NC[C@H]1CN(c2ccc(N3CCOCC3)c(F)c2)C(=O)O1` [Linezolid, reference compound], in assay [3] (setting [8]), the MIC came to 0.4 µM. In assay [1], the activity at 5 µM stood at 1%.

With `O=[N+]([O-])c1c(N2CCCCC2)nc2c(ccc3ccccc32)c1C(Cl)Cl` [Compound 11a, 4-(Dichloromethyl)-3-nitro-2-(piperidin-1-yl)benzo[h]quinoline], the EC50 in assay [4] (Homo sapiens, KB 3-1, 120 h) was more than 50 µM; in assay [5] (Mus musculus, L929, 120 h) it was more than 50 µM; in assay [6] (Homo sapiens, FS4-LTM) it was more than 50 µM; in assay [2] (Homo sapiens, MCF7, 120 h), 19 µM. Moreover, the activity at 5 µM in assay [1] stood at 95.6%. In addition, the “activity against MRSA (in words)” value in assay [1] was “inactive”.

Consider `O=[N+]([O-])c1c(Sc2ccc(F)cc2)nc2c(ccc3ccccc32)c1C(Cl)Cl` [Compound 10d, 4-(Dichloromethyl)-2-((4-fluorophenyl)thio)-3-nitrobenzo[h]quinoline], for which the EC50 was less than 0.1 µM in assay [4] (Homo sapiens, KB 3-1, 120 h); more than 50 µM in assay [5] (Mus musculus, L929, 120 h); more than 50 µM in assay [6] (Homo sapiens, FS4-LTM); more than 50 µM in assay [2] (Homo sapiens, MCF7, 120 h). The activity at 5 µM in assay [1] came to 98.4%. Moreover, the “activity against MRSA (in words)” value in assay [1] is “complete loss of activity”.

As for `O=[N+]([O-])c1c(-n2cccn2)nc2c(ccc3ccccc32)c1C(Cl)Cl` [Compound 18c, 4-(Dichloromethyl)-3-nitro-2-(1H-pyrazol-1-yl)benzo[h]quinoline], the activity at 5 µM in assay [1] was 110%.

Take `O=[N+]([O-])/C(C(Cl)=C(Cl)Cl)=C(\Nc1cccc2ccccc12)n1cncn1` [Compound 17b, (E)-N-(3,4,4-Trichloro-2-nitro-1-(1H-1,2,4-triazol-1-yl)buta-1,3-dien-1-yl)naphthalen-1-amine]: in assay [1], the activity at 5 µM turned out to be 112%.

`CCOC(=O)C[S+]([O-])c1nc2c(ccc3ccccc32)c(C(Cl)Cl)c1[N+](=O)[O-]` (centres unmarked) [Compound 8, Ethyl 2-((4-(dichloromethyl)-3-nitrobenzo[h]quinolin-2-yl)sulfinyl)acetate]: the MIC turned out to be 17.5 µM in assay [3] (setting [8]) and 7.7 µg/mL in assay [3] (setting [9]). Besides, the EC50 in assay [4] (Homo sapiens, KB 3-1, 120 h) is 3.8 µM; in assay [5] (Mus musculus, L929, 120 h), 2.5 µM; in assay [6] (Homo sapiens, FS4-LTM), 3.4 µM; in assay [2] (Homo sapiens, MCF7, 120 h), 3.5 µM; in assay [7] it was 2.5 to 3.8 µM. Besides, in assay [1], the activity at 5 µM is 1%.
